Test results reported in US7101878B1 (Agouron Pharmaceuticals, Inc., priority 1998, dated 2006).

biological target: T1, mouse GnRH receptor (Mus musculus, UniProt Q01776); assay: Radioligand binding, 125I-GnRH-A, 293 cells expressing mouse GnRH receptors; details: 10 uM; read-out: % Inhib. @ 10 uM mGnRH
T1 construct: expressed in transfected cells; host or cells: 293 cells
T1 sequence (Q01776 1-327): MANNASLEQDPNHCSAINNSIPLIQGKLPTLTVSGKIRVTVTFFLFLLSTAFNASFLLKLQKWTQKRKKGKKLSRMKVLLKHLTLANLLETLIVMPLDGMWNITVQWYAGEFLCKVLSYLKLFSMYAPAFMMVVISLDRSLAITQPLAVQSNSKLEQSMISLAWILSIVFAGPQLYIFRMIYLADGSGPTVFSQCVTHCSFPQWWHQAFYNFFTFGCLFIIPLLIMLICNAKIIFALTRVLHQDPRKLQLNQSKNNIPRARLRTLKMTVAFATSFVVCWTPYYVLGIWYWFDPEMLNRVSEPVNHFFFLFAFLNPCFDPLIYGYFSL
Protocol: All compounds were diluted in 1% DMSO (final assay concentration) in binding assay buffer. […] Reactions were terminated by rapid filtration onto 96-well Packard GF/C filters soaked in 0.1% polyethyleneimine. Filters were washed three times with PBS buffer, dried and counted on a Packard Topcount by liquid scintillation counting.
Assay conditions were identical for assessing compound activities at other species. […] IC50 values for control peptides and test compounds were calculated utilizing GraphPad Prism™ software.
The reaction mixture was vortexed and incubated for 1 min at room temperature. After one min, the mixture was vortexed and allowed to incubate for an additional minute. 2 ml of 0.5 M acetic acid/1% BSA was added to the reaction tube and the mixture was added to a C18 Sep-Pak cartridge. The cartridge was washed with subsequent washes of 5 ml H2O and 5 ml 0.5M acetic acid and then eluted with 5×1 ml of 60% CH3CN/40% 0.5M acetic acid. The eluate was diluted with 3× volume of HPLC buffer A (0.1% TFA in H2O) and loaded onto a C18 column. […] The radioactive fractions (750 ed/fraction) are collected into clean polypropylene tubes containing 100 μl of 10% BSA. Fractions were assessed for biological activity by radioligand binding.

SMILES | inhibition at 10 µM [%]
Cc1cc2c(cc1Cc1ccc(C(=O)NCCN(C(C)C)C(C)C)o1)C(C)(C)CCC2(C)C | 102
Cc1ccc(CN(CCc2ccc(Cl)cc2Cl)C(=O)c2ccc(Cc3cc4c(cc3C)C(C)(C)CCC4(C)C)o2)cc1 | 23
CCN(Cc1ccccc1F)C(=O)c1ccc(Cc2cc3c(cc2C)C(C)(C)CCC3(C)C)o1 | 86
Cc1ccc(N2CCN(C(=O)c3ccc(Cc4cc5c(cc4C)C(C)(C)CCC5(C)C)o3)CC2)cc1C | 75
Cc1cc2c(cc1Cc1ccc(C(=O)N(CCN3CCCC3)Cc3cccc(Oc4cccc(C(F)(F)F)c4)c3)o1)C(C)(C)CCC2(C)C | 99
Cc1cc2c(cc1Cc1ccc(C(=O)N(Cc3cccc(Oc4cccc(C(F)(F)F)c4)c3)CC(C)(C)CN(C)C)o1)C(C)(C)CCC2(C)C | 89
Cc1cc2c(cc1Cc1ccc(C(=O)N(C)C3CCN(Cc4ccccc4)C3)o1)C(C)(C)CCC2(C)C (centres unmarked) | 98
Cc1cc2c(cc1Cc1ccc(C(=O)NC(CO)C(C)(C)C)o1)C(C)(C)CCC2(C)C (centres unmarked) | 101
COc1ccc(CCN(CC(C)C)C(=O)c2ccc(Cc3cc4c(cc3C)C(C)(C)CCC4(C)C)o2)cc1OC | 90
Cc1cc2c(cc1Cc1ccc(C(=O)N(Cc3ccncc3)Cc3ccc4c(c3)OCO4)o1)C(C)(C)CCC2(C)C | 91
COc1cc(CN(Cc2ccncc2)C(=O)c2ccc(Cc3cc4c(cc3C)C(C)(C)CCC4(C)C)o2)ccc1OCc1ccccc1 | 64
Cc1cc2c(cc1Cc1ccc(C(=O)N(Cc3cccnc3)CC(C)c3ccccc3)o1)C(C)(C)CCC2(C)C (centres unmarked) | 97
Cc1cc2c(cc1Cc1ccc(C(=O)NC(CO)CO)o1)C(C)(C)CCC2(C)C | 22
Cc1cc2c(cc1Cc1ccc(C(=O)NCC[N+](C)(C)C)o1)C(C)(C)CCC2(C)C | 49
CCOC(=O)CC(C)NC(=O)c1ccc(Cc2cc3c(cc2C)C(C)(C)CCC3(C)C)o1 (centres unmarked) | 88
CCN(CC)CCN(CC)C(=O)c1ccc(Cc2cc3c(cc2C)C(C)(C)CCC3(C)C)o1 | 98

SMILES | inhibition at 10 µM [%]
Cc1cc2c(cc1Cc1ccc(C(=O)NC3CCC(C)CC3)o1)C(C)(C)CCC2(C)C (centres unmarked) | 64
CCOC(=O)CC(C)(NC(N)=O)NC(=O)c1ccc(Cc2cc3c(cc2C)C(C)(C)CCC3(C)C)o1 (centres unmarked) | 25
Cc1cc2c(cc1Cc1ccc(C(=O)N(CCC#N)C3CCCC3)o1)C(C)(C)CCC2(C)C | 88
COc1cc2c(cc1OC)C(c1cccc(Br)c1)N(C(=O)c1ccc(Cc3cc4c(cc3C)C(C)(C)CCC4(C)C)o1)CC2 (centres unmarked) | -23
CCN(CC)CCCC(C)NC(=O)c1ccc(Cc2cc3c(cc2C)C(C)(C)CCC3(C)C)o1 (centres unmarked) | 99
Cc1cc2c(cc1Cc1ccc(C(=O)N3CCCC(C(N)=O)C3)o1)C(C)(C)CCC2(C)C (centres unmarked) | 69
Cc1cc2c(cc1Cc1ccc(C(=O)N3CCC(N4CCCCC4)CC3)o1)C(C)(C)CCC2(C)C | 92
Cc1cc2c(cc1Cc1ccc(C(=O)N3CCC(O)(c4ccccc4)CC3)o1)C(C)(C)CCC2(C)C | 72
Cc1cc2c(cc1Cc1ccc(C(=O)N3CCC(C#N)(c4ccccc4)CC3)o1)C(C)(C)CCC2(C)C | 40
CCN(C(=O)c1ccc(Cc2cc3c(cc2C)C(C)(C)CCC3(C)C)o1)C1C2CCC3CC32C1c1ccccc1 (centres unmarked) | 49
Cc1cc2c(cc1Cc1ccc(C(=O)N3CCc4c([nH]c5ccccc45)C3)o1)C(C)(C)CCC2(C)C | 44
Cc1cc2c(cc1Cc1ccc(C(=O)N(C)Cc3cccc4ccccc34)o1)C(C)(C)CCC2(C)C | 51
Cc1cc2c(cc1Cc1ccc(C(=O)N3CCN(C(c4ccccc4)c4ccc(Cl)cc4)CC3)o1)C(C)(C)CCC2(C)C (centres unmarked) | 4
Cc1cc2c(cc1Cc1ccc(C(=O)N3CCN(C(c4ccc(F)cc4)c4ccc(F)cc4)CC3)o1)C(C)(C)CCC2(C)C | 16
Cc1cc2c(cc1Cc1ccc(C(=O)N3CCCC(C(=O)NC(c4ccccc4)c4ccccc4)C3)o1)C(C)(C)CCC2(C)C (centres unmarked) | 9
Cc1cc2c(cc1Cc1ccc(C(=O)N(Cc3ccccc3)Cc3ccccn3)o1)C(C)(C)CCC2(C)C | 98
